Tested on: Rhizopus microsporus
Assay: Sequential GC-MS analysis of breath samples from a patient with proven Rhizopus microsporus infection during antifungal therapy
Type: in vivo, human
Settings: one patient with proven Rhizopus microsporus infection; from day 0 (start of therapy) over the 28-day treatment course

C[C@@H](c1nc(-c2ccc(C#N)cc2)cs1)[C@](O)(Cn1cncn1)c1cc(F)ccc1F [isavuconazole]
breath levels of three sesquiterpene metabolites (1H-Indene, 2,3,3a,4-tetrahydro-3,3a,6-trimethyl-1-(1-methylethyl)-; cedrene; cedranoxide, 8,14-): gradual attenuation and disappearance

From US10960002B2, “Volatile metabolite profiles for the diagnosis and treatment of Mucorales fungi” (The Brigham and Women's Hospital, Inc., priority 2016, dated 2021)
